{"source": "patent US20240368135A1", "about": "(VERTEX PHARMACEUTICALS INCORPORATED, priority 2021, published 2024)", "target": "human NaV 1.8 (Homo sapiens, UniProt Q9Y5Y9)", "sequence (Q9Y5Y9 126-399 limits assumed)": "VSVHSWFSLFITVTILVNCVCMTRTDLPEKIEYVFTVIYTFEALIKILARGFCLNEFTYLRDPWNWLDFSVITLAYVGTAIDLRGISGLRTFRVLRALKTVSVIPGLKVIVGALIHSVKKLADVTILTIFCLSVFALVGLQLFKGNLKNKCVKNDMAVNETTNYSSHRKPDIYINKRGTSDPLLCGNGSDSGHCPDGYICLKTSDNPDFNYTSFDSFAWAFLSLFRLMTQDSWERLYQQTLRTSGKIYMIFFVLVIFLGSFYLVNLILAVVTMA", "sequence (Q9Y5Y9 660-890 limits assumed)": "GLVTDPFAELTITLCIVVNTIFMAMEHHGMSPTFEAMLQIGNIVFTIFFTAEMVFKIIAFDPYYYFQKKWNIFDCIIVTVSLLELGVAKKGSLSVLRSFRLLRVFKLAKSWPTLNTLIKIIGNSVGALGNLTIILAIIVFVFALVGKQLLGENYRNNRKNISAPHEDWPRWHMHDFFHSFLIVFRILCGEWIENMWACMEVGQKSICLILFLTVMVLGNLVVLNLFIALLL", "sequence (Q9Y5Y9 1148-1722 limits assumed)": "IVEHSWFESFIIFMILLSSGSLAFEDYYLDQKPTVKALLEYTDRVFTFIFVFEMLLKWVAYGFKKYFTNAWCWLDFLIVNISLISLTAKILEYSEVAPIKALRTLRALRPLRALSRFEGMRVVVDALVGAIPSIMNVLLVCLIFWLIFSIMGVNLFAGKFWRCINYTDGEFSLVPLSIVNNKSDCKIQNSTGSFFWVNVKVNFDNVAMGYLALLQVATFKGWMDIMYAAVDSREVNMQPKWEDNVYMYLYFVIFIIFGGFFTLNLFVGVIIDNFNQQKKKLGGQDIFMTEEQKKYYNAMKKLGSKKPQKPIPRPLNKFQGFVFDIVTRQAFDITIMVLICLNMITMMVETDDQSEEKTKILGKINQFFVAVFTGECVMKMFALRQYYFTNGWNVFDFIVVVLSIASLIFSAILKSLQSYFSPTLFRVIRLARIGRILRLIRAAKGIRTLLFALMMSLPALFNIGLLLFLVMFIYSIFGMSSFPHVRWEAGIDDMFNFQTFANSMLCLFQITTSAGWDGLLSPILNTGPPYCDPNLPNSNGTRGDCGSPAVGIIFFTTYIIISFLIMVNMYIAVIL", "test": "E-VIPR assay detecting and measuring NaV inhibition properties", "type": "cell-based", "conditions": "HEK cells expressing truncated human NaV 1.8", "outline": "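HEK cells expressing truncated, fully active human NaV1.8, with KIR2.1 BacMam co-transduction, were loaded with CC2-DMPE/DiSBAC6(3) voltage-sensing dyes for 20 min at room temperature. Compounds were tested in 11-point 3-fold dilutions (300 nM top final), optionally with 25% human serum, under electrical stimulation with FRET read-out.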", "key": {"[1]": {"conditions": "no human serum, read-out: IC50 in the E-VIPR Assay"}, "[2]": {"conditions": "in the presence of human serum (compound numbers followed by *), read-out: IC50 in the E-VIPR Assay, performed in the presence of human serum"}}, "note": "Structures can show the parent of a compound that is named as a salt. Where two headings read alike, the source gives them in different places.", "data": [{"smiles": "COc1c([C@H]2[C@H](C(=O)Nc3cnc4c(c3)OCC4O)O[C@@](C)(C(F)(F)F)[C@H]2C)ccc(F)c1F", "note": "(single isomer, unassigned) [Compound 408, rel-(2R*,3S*,4S*,5R*)-3-(3,4-difluoro-2-methoxyphenyl)-N-(3-hydroxy-2,3-dihydrofuro[3,2-b]pyridin-6-yl)-4,5-dimethyl-5-(trifluoromethyl)-tetrahydrofuran-2-carboxamide]", "values": [{"measurement": "IC50", "setting": "[1]", "result": "10 to 100", "unit": "nM"}]}, {"smiles": "CC(C)Oc1c(C2C(C(=O)Nc3cc(S(C)(=O)=O)ccn3)OC(C)(C(F)(F)F)C2C)ccc(F)c1F", "note": "(stereo not drawn) [Compound 116, 3-(3,4-difluoro-2-isopropoxy-phenyl)-4,5-dimethyl-N-(4-methylsulfonyl-2-pyridyl)-5-(trifluoromethyl)tetrahydrofuran-2-carboxamide]", "values": [{"measurement": "IC50", "setting": "[1]", "result": "100 to 1000", "unit": "nM"}]}, {"smiles": "COc1c(C2C(C(=O)Nc3ccnc(C(O)CO)c3)OC(C)(C)C2C)ccc(F)c1F", "note": "(single isomer, unassigned) [Compound 722, rel-3-(3,4-difluoro-2-methoxyphenyl)-N-(2-(1,2-dihydroxyethyl)pyridin-4-yl)-4,5,5-trimethyltetrahydrofuran-2-carboxamide]", "values": [{"measurement": "IC50", "setting": "[2]", "result": "≥ 1000", "unit": "nM"}]}, {"smiles": "COc1c([C@H]2[C@H](C(=O)Nc3ccc(C#N)nc3)O[C@@](C)(C(F)(F)F)[C@H]2C)ccc(F)c1F", "note": "[Compound 192, (2R,3S,4S,5R)-N-(6-cyanopyridin-3-yl)-3-(3,4-difluoro-2-methoxyphenyl)-4,5-dimethyl-5-(trifluoromethyl)tetrahydrofuran-2-carboxamide]", "values": [{"measurement": "IC50", "setting": "[1]", "result": "10 to 100", "unit": "nM"}]}, {"smiles": "C[C@H](CO)COc1c([C@H]2[C@H](C(=O)Nc3ccc(C(N)=O)nc3)O[C@@](C)(C(F)(F)F)[C@H]2C)ccc(F)c1F", "note": "[Compound 614, 5-((2R,3S,4S,5R)-3-(3,4-difluoro-2-((R)-3-hydroxy-2-methylpropoxy)phenyl)-4,5-dimethyl-5-(trifluoromethyl)tetrahydrofuran-2-carboxamido)picolinamide]", "values": [{"measurement": "IC50", "setting": "[1]", "result": "10 to 100", "unit": "nM"}]}, {"smiles": "COc1c([C@H]2[C@H](C(=O)Nc3ccnc(CN4CCC(F)(F)C4)c3)O[C@@](C)(C(F)(F)F)[C@H]2C)ccc(F)c1F", "note": "[Compound 182, (2R,3S,4S,5R)-3-(3,4-difluoro-2-methoxyphenyl)-N-(2-((3,3-difluoropyrrolidin-1-yl)methyl)pyridin-4-yl)-4,5-dimethyl-5-(trifluoromethyl)tetrahydrofuran-2-carboxamide]", "values": [{"measurement": "IC50", "setting": "[1]", "result": "10 to 100", "unit": "nM"}]}, {"smiles": "CNCc1c([C@H]2[C@H](C(=O)Nc3cn(C(F)F)nc3C)O[C@@](C)(C(F)(F)F)[C@H]2C)ccc(F)c1F", "note": "[Compound 671, (2R,3S,4S,5R)-3-(3,4-difluoro-2-((methylamino)methyl)phenyl)-N-(1-(difluoromethyl)-3-methyl-1H-pyrazol-4-yl)-4,5-dimethyl-5-(trifluoromethyl)tetrahydrofuran-2-carboxamide]", "values": [{"measurement": "IC50", "setting": "[1]", "result": "100 to 1000", "unit": "nM"}]}, {"smiles": "Cc1nn(C2COC2)cc1NC(=O)[C@@H]1O[C@@](C)(C(F)(F)F)[C@@H](C)[C@H]1c1ccc(F)c(F)c1OCCN1CCOCC1", "note": "[Compound 594, (2R,3S,4S,5R)-3-(3,4-difluoro-2-(2-morpholinoethoxy)phenyl)-4,5-dimethyl-N-(3-methyl-1-(oxetan-3-yl)-1H-pyrazol-4-yl)-5-(trifluoromethyl)tetrahydrofuran-2-carboxamide]", "values": [{"measurement": "IC50", "setting": "[1]", "result": "100 to 1000", "unit": "nM"}]}, {"smiles": "C[C@H]1[C@@H](c2ccc(F)c(F)c2OCCO)[C@H](C(=O)Nc2ccn(C)c(=O)c2)O[C@@]1(C)C(F)(F)F", "note": "[Compound 541, (2R,3S,4S,5R)-3-(3,4-difluoro-2-(2-hydroxyethoxy)phenyl)-4,5-dimethyl-N-(1-methyl-2-oxo-1,2-dihydropyridin-4-yl)-5-(trifluoromethyl)tetrahydrofuran-2-carboxamide]", "values": [{"measurement": "IC50", "setting": "[1]", "result": "10 to 100", "unit": "nM"}]}, {"smiles": "COc1c([C@H]2[C@H](C(=O)Nc3ccnc(CCO)c3)O[C@@](C)(C(F)(F)F)[C@H]2C)ccc(F)c1F", "note": "[Compound 385, (2R,3S,4S,5R)-3-(3,4-difluoro-2-methoxyphenyl)-N-(2-(2-hydroxyethyl)pyridin-4-yl)-4,5-dimethyl-5-(trifluoromethyl)tetrahydrofuran-2-carboxamide]", "values": [{"measurement": "IC50", "setting": "[1]", "result": "< 10", "unit": "nM"}]}, {"smiles": "COc1c([C@H]2[C@H](C(=O)Nc3ccnc(N4CCN(C)CC4=O)c3)O[C@@](C)(C(F)(F)F)[C@H]2C)ccc(F)c1F", "note": "[Compound 379, (2R,3S,4S,5R)-3-(3,4-difluoro-2-methoxyphenyl)-4,5-dimethyl-N-(2-(4-methyl-2-oxopiperazin-1-yl)pyridin-4-yl)-5-(trifluoromethyl)tetrahydrofuran-2-carboxamide]", "values": [{"measurement": "IC50", "setting": "[1]", "result": "< 10", "unit": "nM"}]}, {"smiles": "COc1c([C@H]2[C@H](C(=O)Nc3ccnc(N4C(=O)[C@H]5C[C@@H]4CN5C)c3)O[C@@](C)(C(F)(F)F)[C@H]2C)ccc(F)c1F", "note": "[Compound 490, (2R,3S,4S,5R)-3-(3,4-difluoro-2-methoxyphenyl)-4,5-dimethyl-N-(2-((1R,4R)-5-methyl-3-oxo-2,5-diazabicyclo[2.2.1]heptan-2-yl)pyridin-4-yl)-5-(trifluoromethyl)tetrahydrofuran-2-carboxamide]", "values": [{"measurement": "IC50", "setting": "[1]", "result": "10 to 100", "unit": "nM"}]}, {"smiles": "C[C@H]1[C@@H](c2ccc(F)c(F)c2OCCN2CCOCC2)[C@H](C(=O)Nc2ccn(C)c(=O)c2)O[C@@]1(C)C(F)(F)F", "note": "[Compound 588, (2R,3S,4S,5R)-3-(3,4-difluoro-2-(2-morpholinoethoxy)phenyl)-4,5-dimethyl-N-(1-methyl-2-oxo-1,2-dihydropyridin-4-yl)-5-(trifluoromethyl)tetrahydrofuran-2-carboxamide]", "values": [{"measurement": "IC50", "setting": "[1]", "result": "10 to 100", "unit": "nM"}]}, {"smiles": "COc1c([C@H]2[C@H](C(=O)Nc3ccnc(N4C[C@@H](C)N(C)CC4=O)c3)O[C@@](C)(C(F)(F)F)[C@H]2C)ccc(F)c1F", "note": "[Compound 470, (2R,3S,4S,5R)-3-(3,4-difluoro-2-methoxyphenyl)-N-(2-((R)-4,5-dimethyl-2-oxopiperazin-1-yl)pyridin-4-yl)-4,5-dimethyl-5-(trifluoromethyl)tetrahydrofuran-2-carboxamide]", "values": [{"measurement": "IC50", "setting": "[1]", "result": "< 10", "unit": "nM"}]}, {"smiles": "CN=S(C)(=O)c1cc(NC(=O)C2OC(C)(C(F)(F)F)C(C)C2c2ccc(F)c(F)c2OC)ccn1", "note": "(single isomer, unassigned) [Compound 529, 3-(3,4-difluoro-2-methoxy-phenyl)-N-[2-(N,S-dimethylsulfonimidoyl)-4-pyridyl]-4,5-dimethyl-5-(trifluoromethyl)tetrahydrofuran-2-carboxamide]", "values": [{"measurement": "IC50", "setting": "[1]", "result": "100 to 1000", "unit": "nM"}]}, {"smiles": "COc1c([C@H]2[C@H](C(=O)Nc3ccnc(CN4CCCC4)c3)O[C@@](C)(C(F)(F)F)[C@H]2C)ccc(F)c1F", "note": "[Compound 184, (2R,3S,4S,5R)-3-(3,4-difluoro-2-methoxyphenyl)-4,5-dimethyl-N-(2-(pyrrolidin-1-ylmethyl)pyridin-4-yl)-5-(trifluoromethyl)tetrahydrofuran-2-carboxamide]", "values": [{"measurement": "IC50", "setting": "[1]", "result": "< 10", "unit": "nM"}]}, {"smiles": "COCCOc1c([C@H]2[C@H](C(=O)Nc3ccnc(CCO)c3)O[C@@](C)(C(F)(F)F)[C@H]2C)ccc(F)c1F", "note": "[Compound 648, (2R,3S,4S,5R)-3-[3,4-difluoro-2-(2-methoxyethoxy)phenyl]-N-[2-(2-hydroxyethyl)-4-pyridyl]-4,5-dimethyl-5-(trifluoromethyl)tetrahydrofuran-2-carboxamide]", "values": [{"measurement": "IC50", "setting": "[1]", "result": "< 10", "unit": "nM"}]}, {"smiles": "Cc1nocc1NC(=O)[C@@H]1O[C@@](C)(C(F)(F)F)[C@@H](C)[C@H]1c1ccc(F)c(F)c1OCCN1CC(C)(O)C1", "note": "[Compound 626, (2R,3S,4S,5R)-3-(3,4-difluoro-2-(2-(3-hydroxy-3-methylazetidin-1-yl)ethoxy)phenyl)-4,5-dimethyl-N-(3-methylisoxazol-4-yl)-5-(trifluoromethyl)tetrahydrofuran-2-carboxamide]", "values": [{"measurement": "IC50", "setting": "[1]", "result": "100 to 1000", "unit": "nM"}]}, {"smiles": "C[C@H]1[C@@H](c2ccc(F)c(F)c2OC(F)F)[C@H](C(=O)Nc2cccnc2)O[C@@]1(C)C(F)(F)F", "note": "(single isomer, unassigned) [Compound 65]", "values": [{"measurement": "IC50", "setting": "[2]", "result": "10 to 100", "unit": "nM"}]}, {"smiles": "COc1c([C@H]2[C@H](C(=O)Nc3ccnc(O[C@H]4COC[C@H]4O)c3)O[C@@](C)(C(F)(F)F)[C@H]2C)ccc(F)c1F", "note": "(single isomer, unassigned) [Compound 240, rel-(2R*,3S*,4S*,5R*)-3-(3,4-difluoro-2-methoxyphenyl)-N-(2-(((3S,4R)-4-hydroxytetrahydrofuran-3-yl)oxy)pyridin-4-yl)-4,5-dimethyl-5-(trifluoromethyl)tetrahydrofuran-2-carboxamide]", "values": [{"measurement": "IC50", "setting": "[1]", "result": "< 10", "unit": "nM"}]}, {"smiles": "COc1c([C@H]2[C@H](C(=O)Nc3ccc(-n4ccc(C)n4)nc3)O[C@@](C)(C(F)(F)F)[C@H]2C)ccc(F)c1F", "note": "[Compound 395, (2R,3S,4S,5R)-3-(3,4-difluoro-2-methoxyphenyl)-4,5-dimethyl-N-(6-(3-methyl-1H-pyrazol-1-yl)pyridin-3-yl)-5-(trifluoromethyl)-tetrahydrofuran-2-carboxamide]", "values": [{"measurement": "IC50", "setting": "[1]", "result": "10 to 100", "unit": "nM"}]}, {"smiles": "COCCOc1c([C@H]2[C@H](C(=O)Nc3cnn(CC(C)(C)O)c3)O[C@@](C)(C(F)(F)F)[C@H]2C)ccc(F)c1F", "note": "[Compound 583, (2R,3S,4S,5R)-3-(3,4-difluoro-2-(2-methoxyethoxy)phenyl)-N-(1-(2-hydroxy-2-methylpropyl)-1H-pyrazol-4-yl)-4,5-dimethyl-5-(trifluoromethyl)tetrahydrofuran-2-carboxamide]", "values": [{"measurement": "IC50", "setting": "[1]", "result": "100 to 1000", "unit": "nM"}]}, {"smiles": "C[C@H]1[C@@H](c2ccc(F)c(F)c2OCC2COC2)[C@H](C(=O)Nc2ccc(C(C)(C)O)nc2)O[C@@]1(C)C(F)(F)F", "note": "[Compound 581, (2R,3S,4S,5R)-3-(3,4-difluoro-2-(oxetan-3-ylmethoxy)phenyl)-N-(6-(2-hydroxypropan-2-yl)pyridin-3-yl)-4,5-dimethyl-5-(trifluoromethyl)tetrahydrofuran-2-carboxamide (TFA salt)]", "values": [{"measurement": "IC50", "setting": "[1]", "result": "100 to 1000", "unit": "nM"}]}, {"smiles": "COc1c([C@H]2[C@H](C(=O)Nc3cc(C[C@H](O)CO)n(C)n3)O[C@@](C)(C(F)(F)F)[C@H]2C)ccc(F)c1F", "note": "[Compound 5, (2R,3S,4S,5R)-3-(3,4-difluoro-2-methoxyphenyl)-N-(5-((S)-2,3-dihydroxypropyl)-1-methyl-1H-pyrazol-3-yl)-4,5-dimethyl-5-(trifluoromethyl)tetrahydrofuran-2-carboxamide]", "values": [{"measurement": "IC50", "setting": "[1]", "result": "10 to 100", "unit": "nM"}]}]}
